The record followed here is ChEMBL document CHEMBL6078686, “Synthesis of 1-Hydroxy(and 1-Alkoxy, 1-Acyloxy)-1H-indoles and evaluations of their suppressive activities against tumor growth through inhibiting lactate dehydrogenase A” (Eur J Med Chem, 2025).

The source made the active and inactive calls. The rule behind the calls is not given here.

The test system of data set [1] is DLD-1. Briefly: Cytotoxicity against human DLD-1 cells assessed as inhibition of cell growth measured after 48 hrs incubation by MTT assay. Format: functional.
Data set [2] can be described thus: Toxicity in male athymic mouse subcutaneously inoculated with human DLD-1 cells assessed as injury/inflammation in liver at 5 to 25 mg/kg abdominally injected daily for 2 weeks after 15 days of tumor injection measured after 2 weeks. The following applies: in vivo, 336 h, dose 5-25 mg/kg. Format: organism-based.
The subject of data set [3] is DLD-1. Briefly: Induction of apoptosis in human DLD-1 cells assessed as caspase 9 at 20 to 40 uM measured after 48 hrs by Western blot analysis. It counts as functional, cell-based. The following applies: dose 20-40 µM.
The target of data set [4] is T1, L-lactate dehydrogenase A chain (Homo sapiens, UniProt P00338). Briefly: Inhibition of human recombinant LDHA assessed as conversion of NADH […] at by spectrofluorometry.
The target in data set [5] is T1, L-lactate dehydrogenase A chain. Briefly: Non-competitive inhibition of human recombinant LDHA assessed as ratio of Km/Vmax in presence of pyruvate by measuring NADH fluorescence at 100 nM by Lineweaver-Burk plot analysis.
In a further data set the test system is A549. Briefly: Cytotoxicity against human A549 cells assessed as inhibition of cell growth measured after 48 hrs incubation by MTT assay. Format: functional.
Data set [6] in a line: Cytotoxicity against mouse AML12 cells assessed as inhibition of cell growth measured after 48 hrs incubation by MTT assay. Format: toxicity, cell-based.
In the next data set the test system is PANC-1. Briefly: Cytotoxicity against human PANC-1 cells assessed as inhibition of cell growth measured after 48 hrs incubation by MTT assay. Format: functional.
The subject of data set [7] is DLD-1. Briefly: In vivo tumor suppressor activity against human DLD-1 cells subcutaneously implemented in male athymic mouse model assessed as reduction in tumor weight at 5 to 25 mg/kg abdominally injected daily for 2 weeks after 15 days of tumor injection measured after 2 weeks. Format: functional, organism-based. The following applies: dose 5-25 mg/kg.
The subject of another data set is HeLa. Briefly: Cytotoxicity against human HeLa cells assessed as inhibition of cell growth measured after 48 hrs incubation by MTT assay. It counts as functional.
Data set [8] deals with DLD-1. Briefly: In vivo tumor suppressor activity against human DLD-1 cells subcutaneously implemented in male athymic mouse model assessed as reduction in tumor volume at 5 to 25 mg/kg abdominally injected daily for 2 weeks after 15 days of tumor injection measured after 2 weeks. Format: functional, organism-based. The following applies: dose 5-25 mg/kg.
The target of data set [9] is T1, L-lactate dehydrogenase A chain. Briefly: Inhibition of intracellular LDHA activity in human DLD-1 cell lysate assessed as conversion of NADH […] by spectrofluorometry. It counts as subcellular.
Another data set deals with U-87 MG. Briefly: Cytotoxicity against human U87 cells assessed as inhibition of cell growth measured after 48 hrs incubation by MTT assay. Format: functional, U-87MG ATCC.
Data set [10] concerns the target T1, L-lactate dehydrogenase A chain. Briefly: Non-competitive inhibition of human recombinant LDHA assessed as ratio of Km/Vmax in presence of pyruvate by measuring NADH fluorescence at 25 nM by Lineweaver-Burk plot analysis.
Data set [11] is described as follows: Cytotoxicity against mouse Hepa1-6 cells assessed as inhibition of cell growth measured after 48 hrs incubation by MTT assay. Format: toxicity, cell-based, Hepa 1-6.
Data set [12] in a line: Cytotoxicity against human T HESCs cells assessed as inhibition of cell growth measured after 48 hrs incubation by MTT assay. Format: toxicity, cell-based.
Data set [13] relates to DLD-1. Briefly: In vivo tumor suppressor activity against human DLD-1 cells subcutaneously implemented in male athymic mouse model assessed as caspase 3 activation in tumor tissue at 25 mg/kg abdominally injected daily for 2 weeks after 15 days of tumor injection measured after 2 weeks. It counts as functional, organism-based.
The nature of data set [14]: Toxicity in male athymic mouse subcutaneously inoculated with human DLD-1 cells assessed as injury/inflammation in kidney at 5 to 25 mg/kg abdominally injected daily for 2 weeks after 15 days of tumor injection measured after 2 weeks. Format: organism-based. As to conditions: in vivo, 336 h, dose 5-25 mg/kg.
The test system of data set [15] is DLD-1. Briefly: Induction of apoptosis in human DLD-1 cells assessed as PARP at 20 to 40 uM measured after 48 hrs by Western blot analysis. It counts as functional, cell-based. The following applies: dose 20-40 µM.
Data set [16] has as its system DLD-1. Briefly: Induction of apoptosis in human DLD-1 cells assessed as caspase 3 at 20 to 40 uM measured after 48 hrs by Western blot analysis. It counts as functional, cell-based. The following applies: dose 20-40 µM.
In another data set the test system is MCF7. Briefly: Cytotoxicity against human MCF7 cells assessed as inhibition of cell growth measured after 48 hrs incubation by MTT assay. Format: functional.
The nature of data set [17]: Toxicity in male athymic mouse subcutaneously inoculated with human DLD-1 cells assessed as weight loss at 5 to 25 mg/kg abdominally injected daily for 2 weeks after 15 days of tumor injection measured after 2 weeks. Format: organism-based. The following applies: in vivo, 336 h, dose 5-25 mg/kg.
The subject of data set [18] is CCCCCCOCc1c(C(=O)OC)n(O)c2cccc(Br)c12. Briefly: Non-competitive inhibition of human recombinant LDHA assessed as Vmax in presence of pyruvate by measuring NADH fluorescence at 100 nM by Lineweaver-Burk plot analysis.
Data set [19] has as its system COC(=O)c1c(COCCc2ccccc2)c2c(Br)cccc2n1OC. Briefly: Non-competitive inhibition of human recombinant LDHA assessed as Vmax in presence of pyruvate by measuring NADH fluorescence at 40 nM by Lineweaver-Burk plot analysis.
Data set [20] shares this test system. Briefly: Non-competitive inhibition of human recombinant LDHA assessed as Vmax in presence of pyruvate by measuring NADH fluorescence at 160 nM by Lineweaver-Burk plot analysis.
The test system is the same in data set [21]. Briefly: Non-competitive inhibition of human recombinant LDHA assessed as Km in presence of pyruvate by measuring NADH fluorescence at 40 nM by Michaelis-Menten analysis.
The subject of data set [22] is CCCCCCOCc1c(C(=O)OC)n(O)c2cccc(Br)c12. Briefly: Non-competitive inhibition of human recombinant LDHA assessed as Vmax in presence of pyruvate by measuring NADH fluorescence at 25 nM by Lineweaver-Burk plot analysis.
Data set [23] shares this test system. Briefly: Non-competitive inhibition of human recombinant LDHA assessed as Km in presence of pyruvate by measuring NADH fluorescence at 25 nM by Michaelis-Menten analysis.
Data set [24] deals with COC(=O)c1c(COCCc2ccccc2)c2c(Br)cccc2n1OC. Briefly: Non-competitive inhibition of human recombinant LDHA assessed as Km in presence of pyruvate by measuring NADH fluorescence at 160 nM by Michaelis-Menten analysis.
The subject of data set [25] is CCCCCCOCc1c(C(=O)OC)n(O)c2cccc(Br)c12. Briefly: Non-competitive inhibition of human recombinant LDHA assessed as Km in presence of pyruvate by measuring NADH fluorescence at 100 nM by Michaelis-Menten analysis.
Data set [26] has as its target T1, L-lactate dehydrogenase A chain. Briefly: Non-competitive inhibition of human recombinant LDHA assessed as ratio of Km/Vmax in presence of pyruvate by measuring NADH fluorescence at 160 nM by Lineweaver-Burk plot analysis.
The target is the same in data set [27]. Briefly: Non-competitive inhibition of human recombinant LDHA assessed as ratio of Km/Vmax in presence of pyruvate by measuring NADH fluorescence at 40 nM by Lineweaver-Burk plot analysis.

In the case of `COC(=O)c1cc2c(C(F)(F)F)cc(-c3ccccc3)cc2n1O`, in the data set on DLD-1 [1], the GI50 was found to be 106 µM.
As for `CCCCCCOCc1c(C(=O)OC)n(O)c2cccc(Br)c12`, the Activity entry in data set [2], in data set [14] and in data set [17] was “Non-toxic” throughout. The result in the data set with DLD-1 [3], with DLD-1 [7], with DLD-1 [8], in the data set on DLD-1 [13], in the data set on DLD-1 [15] and in the data set on DLD-1 [16] was Active. The 50% inhibitory concentration (IC50) in [4] worked out at 0.025 µM; in data set [9], 11.6 µM. The inhibition entry in data set [4] and in data set [9] was “Dose-dependent-effect” in each case. Further, the GI50 with DLD-1 [1] turned out to be 27 µM; with A549, 45.6 µM; with PANC-1 it was 31.4 µM; in the data set with HeLa it was 39.6 µM; in the data set with U-87 MG, 60.9 µM; in the data set with MCF7, 31.7 µM. In addition, the values for the Vmax/Km in data set [5] and in [10] were 0.047 and 0.056, respectively. The GI50 at 48 h in [6] was more than 100 µM; in data set [11], 49.6 µM; in data set [12] it was more than 100 µM.
Take “L-lactate dehydrogenase A chain (Homo sapiens) (from UniProt P00338)”: the Vmax in [18] came to 3.6; in data set [19], 5.84; in data set [20] it was 5.01; in data set [22] it was 4.54. In addition, the Km in [21] was 172 µM; in data set [23], 254 µM; in [24], 189 µM; in data set [25] it was 170 µM.
On to `COC(=O)c1c(COCCc2ccccc2)c2c(Br)cccc2n1OC`, for which the Vmax/Km in data set [26] came out at 0.038; in data set [27], 0.029. In data set [4], the IC50 was determined as 0.124 µM. The inhibition entry in data set [4] is “Dose-dependent-effect”. In addition, the GI50 in the data set with DLD-1 [1] is more than 100 µM; in the data set with A549, more than 100 µM; in the data set with PANC-1 it was more than 100 µM; in the data set on HeLa, 83.5 µM; with U-87 MG it was 66.7 µM; with MCF7, more than 100 µM. For the same compound, the GI50 at 48 h in data set [6] was 85.2 µM; in data set [11], 56.2 µM; in data set [12] it was more than 100 µM. In addition, in data set [9], the inhibition entry is “inactive”.
